Patent publication US20260174766A1, “COMBINATION OF MENIN INHIBITOR(S) AND IMMUNOPROTEASOME INHIBITOR(S) FOR TREATMENT OF LEUKEMIA” (Medizinische Hochschule Hannover, priority 2022, published 2026)

Key:
[1] = test system: MLLr leukemic cells (MLL-AF9 and MLL-AF4 PDX); assay: Patient derived xenografts (MLL-AF9, MLL-AF4) in NSGW41 mice treated with PR-957; type: in vivo, mouse
Description: NOD.Cg-Prkdc^scid Il2rg^tm1Wjl Tg(CMV-IL3, CSF2, KITLG) 1Eav/MloySzJ (NSGS), NOD.Cg-Prkdc^scid Il2rg^tm1Wjl/SzJ (NSG) or NOD.Cg-Prkdc^scid Il2rg^tm1Wjl/RJ (NXG) were obtained from The Jackson Laboratory (Bar Harbor, ME, USA). 8-12-weeks old adult mice (male and female) were irradiated with 2 Gy (single dose) before transplantation. 1×10^5 MOLM-13, ML-2 or MV-4; 11 cells transduced with either of two PSMB8/LMP7 shRNAs or non-targeting control; with a pLEX vector containing the sequence of BASP1 or an empty vector; or treated ex vivo with the indicated inhibitors were injected intravenously via the tail vein. For patient derived xenograft experiments (PDX) of human MLLr leukemia we used an improved model for human HSC transplantation and analysis, that has been developed from immune-deficient mouse strains containing Kit mutations: NOD.Cg-^KitW-41J Prkdc^scid Il2rg^tm1Wjl/WaskJ (NSGW41) (Cosgun et al., 2014). These mice can be engrafted without prior conditioning and therefore maintain an intact niche and microenvironment. Human myeloid engraftment (hCD45+ CD13+) was analyzed by flow cytometry.
In order to assess for the functional relevance of immunoproteasome component LMP7/PSMB8 in human AML, genetic inactivation of LMP7/PSMB8 by RNAi was performed with two independent shRNAs against LMP7/PSMB8 (shPSMB8-3 and shPSMB8-2) compared to non-targeting control (shNT) in MLLr cell lines. […] However, induction of apoptosis could only be detected in less than 40% of cells with no significant variability between MLLr cell lines and the individual shRNAs. Efficient LMP7/PSMB8 depletion was confirmed by Western blotting (FIG. 1E). […] Following xenotransplantation, the relative abundance of human AML cells in the murine peripheral blood was measured over time by flow cytometry, and PR-957 treatment was initiated once hCD45+ AML cells constituted 0.1%-0.5% of PB cells. […]

[2] = test system: MLL-rearranged murine leukemic cells; assay: Methylcellulose colony-forming assay, MLL-rearranged murine leukemic cells; type: cell-based, mouse
Procedure: Primary mouse bone marrow (BM) cells (transduced with MLL-AF9/KRAS, MLL-AF6, or AML1-ETO/KRAS) were seeded in MethoCult GF M3434 (StemCell Technologies) at a concentration of 1×10^3 cells/replicate. Colonies propagated in culture were scored at day 8. For re-plating of primary mouse BM cells, colonies were harvested from the methylcellulose medium, washed with PBS/1% FBS and seeded again at a concentration of 1×10^3 cells/replicate. MOLM-13 or ML-2 cells infected with either control or PSMB8/LMP7-specific shRNAs were plated at a concentration of 1×10^3 cells in MethoCult H4230 (StemCell Technologies) supplemented with 20% FBS and colony numbers were counted on day 10-14.

[3] = test system: Menin-inhibitor resistant cell lines (MV-4;11 M327I, T349M); assay: Relative growth of Menin-inhibitor resistant MV-4;11 cell lines; type: cell-based, human; details: resistance mutations M327I and T349M; 50 nM or 100 nM PR-957; FIG. 4L
Procedure: MOLM-13, MONO-MAC-6, THP-1, KOPN-8, ML-2, MV-4;11, OCI-AML3, U-937, KASUMI-1, K-562, HL-60 and LAMA-84 cells were purchased from DSMZ (Braunschweig, Germany). Cas9-Blast cell lines are subclones of the respective cell lines and stably transduced with lentiCas9-Blast (Addgene plasmid #52962). Cells were cultured in RPMI 1640 medium (Thermo Fisher Scientific, Waltham, MA, USA) supplemented with 10-20% FBS (Thermo Fisher Scientific) in a humid atmosphere of 5% CO2 at 37° C. MV4;11 cells harboring Menin-inhibitor resistance mediating mutations of Menin were generated by CRISPR-Cas9 technology.

[4] = test system: normal hematopoietic cells; assay: Normal hematopoiesis: competitive transplantation after in vivo PR-957 treatment; design: species or system mouse
[5] = test system: human MLL-rearranged AML cell lines; assay: Cell cycle analysis (EdU, % cells in S phase); type: cell-based; details: 100 nM PR-957, 24 hours; MOLM-13, MV-4;11, ML-2, KOPN-8; FIG. 1I
Procedure: Immunophenotyping of immature and mature cell compartments and of leukemic cells was performed as described before (Heidel et al., 2013; Heidel et al., 2012). The antibodies used for cell surface staining are provided in Table 1 at the end of section 2 (“Key Resource Table”). Cells were stained in PBS/1% FBS for 1.5 hours at 4° C. SYTOX® Blue Dead Cell Stain (Life Technologies, Darmstadt, Germany) was used to exclude dead cells. Flow cytometry was performed on a LSR-Fortessa or FACS Canto II cytometer (Becton Dickinson, Heidelberg, Germany). Cell cycle analysis was performed using the Click-iT™ Plus EdU Alexa Fluor™ 647 Assay Kit (Thermo Scientific, Waltham, MA, USA) as per the manufacturer's instructions.
Samples were labeled for FACs based analysis of cell cycle using the Click-iTR EdU assay. n=3 independent experiments; paired t test.

COc1ccc(C[C@H](NC(=O)[C@H](C)NC(=O)CN2CCOCC2)C(=O)N[C@@H](Cc2ccccc2)C(=O)[C@]2(C)CO2)cc1 [PR-957, (2S)-3-(4-methoxyphenyl)-N-[(2S)-1-[(2S)-2-methyloxiran-2-yl]-1-oxo-3-phenylpropan-2-yl]-2-[[(2S)-2-[(2-morpholin-4-ylacetyl)amino]propanoyl]amino]propanamide]
antileukemic activity in PDX models ([1]; 3 mg/KG i.v. 5 consecutive days, every 2 weeks, escalated to 6 and 10 mg/KG, NSGW41 mice): potent antileukemic activity | cell morphology of AML cells (cytospin analysis) ([1]; PDX after onset of AML, FIG. 1K): signs of cellular differentiation | survival and disease penetrance in PDX ([1]; over a period of 100 days, FIG. 1J): improved survival and reduced disease penetrance | colony size and shape ([2]; MLL-AF9 transformed leukemia): reduction of colony size and changes in colony shape | clonogenic potential (colony counts) ([2]; nanomolar concentrations (100 nM or 200 nM), serial replating, FIG. 2A): profound dose dependent reduction of clonogenic potential | sensitivity of Menin-inhibitor resistant cell lines to immunoproteasome inhibition [3]: preserved sensitivity | hematopoietic stem- and progenitor cell abundance ([4]; PR-957 for 3 weeks (10 mg/kg, 5 days/week), FIGS. 2K,L,M): did not show any changes | stem- and progenitor cell chimerism in secondary recipients ([4]; previous PR-957 treatment, FIGS. 2O,P,Q): not affected | peripheral blood chimerism in secondary recipient mice ([4]; until week 16, FIG. 2N): no changes | cell cycle activity (% of cells in S phase) [5]: reduced cell cycle activity
